Here are results for 9 molecules from patent US8563714B2, “Bridged spiro [2.4] heptane derivatives as ALX receptor and/or FPRL2 agonists” (Actelion Pharmaceuticals Ltd., priority 2009, dated 2013).

The target of one experiment is T1, human ALX receptor (Homo sapiens, UniProt P25090).
T1 construct: expressed in transfected cells; host or cells: HEK293 (HEK293-hALXR-Gα16)
T1 sequence (P25090 1-351): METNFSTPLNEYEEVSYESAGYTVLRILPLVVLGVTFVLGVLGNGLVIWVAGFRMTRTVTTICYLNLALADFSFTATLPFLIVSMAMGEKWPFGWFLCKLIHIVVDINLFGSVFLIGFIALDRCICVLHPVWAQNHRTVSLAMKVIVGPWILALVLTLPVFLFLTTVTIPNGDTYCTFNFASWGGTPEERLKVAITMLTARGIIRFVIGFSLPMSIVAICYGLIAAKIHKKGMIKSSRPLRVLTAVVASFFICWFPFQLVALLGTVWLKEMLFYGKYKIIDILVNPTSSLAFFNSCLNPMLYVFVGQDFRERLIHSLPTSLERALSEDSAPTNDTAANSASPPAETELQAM
The experiment is described as follows: Intracellular calcium measurements (FLIPR), agonistic activity in HEK293-hALXR-Gα16 cells. Format: cell-based. Conditions: Fluo-4 calcium FLIPR, normalized to WKYMVm 10 nM. The method in brief:
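HEK293 cells expressing hALXR and Gα16 were loaded with 1 μM Fluo-4 AM and 20 mM HEPES for 60 min at 37°C, then exposed to serially diluted compound. FLIPR fluorescence was read at ex 488/em 540 nm. Baseline-subtracted peak responses were normalized to 10 nM WKYMVm.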
A general note: Calcium assays in cells follow changes in intracellular calcium, usually with a dye or a luminescent sensor.

Another experiment has as its target T2, human FPRL2 (Homo sapiens, UniProt P25089).
T2 construct: expressed in transfected cells; host or cells: HEK293 (HEK293-hFPRL2-Gα16)
T2 sequence (P25089 1-353): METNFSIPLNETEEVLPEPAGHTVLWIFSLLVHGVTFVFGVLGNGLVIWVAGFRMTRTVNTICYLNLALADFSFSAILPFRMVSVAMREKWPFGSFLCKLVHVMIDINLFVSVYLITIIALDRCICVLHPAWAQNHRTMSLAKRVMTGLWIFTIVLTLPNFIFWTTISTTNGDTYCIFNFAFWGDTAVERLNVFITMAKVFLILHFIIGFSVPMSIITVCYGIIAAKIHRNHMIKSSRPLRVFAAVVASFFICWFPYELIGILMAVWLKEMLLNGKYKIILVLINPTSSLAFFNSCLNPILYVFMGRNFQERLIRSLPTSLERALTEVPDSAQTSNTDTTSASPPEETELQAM
The experiment is described as follows: Intracellular calcium measurements (FLIPR), agonistic activity in HEK293-hFPRL2-Gα16 cells. Format: cell-based. The note with it: Fluo-4 calcium FLIPR, normalized to GLY14-Humanin 100 nM. The method in brief: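 Peak values after baseline subtraction are expressed relative to 100 nM Gly14-Humanin; compounds diluted in assay buffer from 10 mM DMSO stocks.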

`CN(C)CCCCCNC(=O)[C@H]1[C@H](C(=O)Nc2ccc(Br)cc2)[C@@H]2C=C[C@H]1C21CC1` (racemic) [Example 51, (5R*)—N^5-(4-Bromophenyl)-(6R*)—N^6-(5-dimethyl-amino-pentyl)-(4S*,7R*)-[4,7-ethenylene-spiro[2.4]heptane]-5,6-dicarboxamide]: the EC50 – broadly, the concentration that produces a half-maximal response – was found to be 8.2 nM at human ALX receptor and 1490 nM at human FPRL2.
In the case of `CC(=O)c1csc(CNC(=O)[C@H]2[C@H](C(=O)NCCCc3nc4ccccc4[nH]3)[C@H]3C=C[C@@H]2C32CC2)n1` (racemic) [Example 247, (5R*)—N^5-(4-Acetyl-thiazol-2-yl-methyl)-(6R*)—N^6-(3-(1H-benzoimidazol-2-yl)-propyl)-(4S*,7R*)-[4,7-ethenylene-spiro[2.4]heptane]-5,6-dicarboxamide], the EC50 on human ALX receptor was determined as 106 nM; at human FPRL2, 1080 nM.
With `CC(C)Cc1cc(CNC(=O)[C@H]2[C@H](C(=O)NCCCCN3CCCC3)[C@H]3C=C[C@@H]2C32CC2)no1` (racemic) [Example 201, (5R*)—N^5-(5-(iso-Butyl)-isoxazol-3-yl-methyl)-(6R*)—N^6-(4-pyrrolidin-1-yl-butyl)-(4S*,7R*)-[4,7-ethenylene-spiro[2.4]heptane]-5,6-dicarboxamide], the EC50 at human ALX receptor stood at 93 nM; at human FPRL2 it was 1440 nM.
In the case of `CC1CCC(NC(=O)C2C(C(=O)NCCCCN3CCCC3)C3C=CC2C32CC2)CC1` (mixture of isomers) [Example 126, (5R*)—N^5-(4-Methyl-cyclohex-1-yl)-(6R*)—N^6-(4-pyrrolidin-1-yl-butyl)-(4S*,7R*)-[4,7-ethenylene-spiro[2.4]heptane]-5,6-dicarboxamide], the EC50 at human ALX receptor is 71 nM; at human FPRL2, 613 nM.
As for `O=C(NCCCCN1CCCC1)[C@H]1[C@H](C(=O)Nc2ccc3[nH]ccc3c2)[C@@H]2C=C[C@H]1C21CC1` (racemic) [Example 147, (5R*)—N^5-(1H-Indol-5-yl)-(6R*)—N^6-(4-pyrrolidin-1-yl-butyl)-(4S*,7R*)-[4,7-ethenylene-spiro[2.4]heptane]-5,6-dicarboxamide], the EC50 came out at 7410 nM on human ALX receptor and 837 nM at human FPRL2.
On the same counts, the results for `CC(C)(CN)CNC(=O)[C@H]1[C@H](C(=O)NCc2ccc(Br)cc2)[C@@H]2C=C[C@H]1C21CC1` (racemic) [Example 310, (5R*)—N^5-(4-Bromophenyl-methyl)-(6R*)—N^6-(2,2-dimethyl-3-amino-propyl)-(4S*,7R*)-[4,7-ethenylene-spiro[2.4]heptane]-5,6-dicarboxamide] are 26 nM and 466 nM.
For the molecule `COc1ccc(CCNC(=O)[C@H]2[C@H](C(=O)NCCCCN3CCCC3)[C@H]3C=C[C@@H]2C32CC2)cc1Br` (racemic) [Example 384, (5R*)—N^5-(2-(3-Bromo-4-methoxyphenyl)ethyl)-(6R*)—N^6-(4-pyrrolidino-butyl)-(4S*,7R*)-[4,7-ethenylene-spiro[2.4]heptane]-5,6-dicarboxamide], the values for the EC50 at human ALX receptor and on human FPRL2 were 10300 nM and 72 nM, respectively.
As to `CC(=O)N1CCN(CCCCNC(=O)[C@H]2[C@H](C(=O)Nc3ccc(Br)cc3)[C@@H]3C=C[C@H]2C32CC2)CC1` [Example 217, (5R)—N^5-(4-Bromophenyl)-(6R)—N^6-(4-(4-acetyl-piperazin-1-yl)butyl)-(4S,7R)-[4,7-ethenylene-spiro[2.4]heptane]-5,6-dicarboxamide], the EC50 amounted to 38 nM at human ALX receptor and 61 nM on human FPRL2.
As to `O=C(NCC1CCCO1)C1C(C(=O)Nc2ccc(Br)cc2)C2CCC1C21CC1` (mixture of isomers) [Example 104, (5R*)—N^5-(4-Bromophenyl)-(6R*)—N^6-(tetrahydrofuran-2-yl-methyl)-(4S*,7R*)-[4,7-ethylene-spiro[2.4]heptane]-5,6-dicarboxamide], the EC50 at human ALX receptor was 1.5 nM; at human FPRL2, 5250 nM.
